Results reported in US6479435B1, “Diaryl ethers and processes for their preparation and herbicidal and desiccant compositions containing them” (ISK Americas Incorporated, priority 1997, dated 2002).

Columns and labels:
Assay type in all cases: in vivo
[1] = tested on: field corn (Zea mays L., var. Dekalb 535, CORN); assay: Post-emerge greenhouse test, crop damage rating; settings: 14 days after application
Outline: (§1)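 Scores use a 0 (no damage) to 100 (complete kill) scale, taken 14 days after a foliar spray. Acetone solutions with 0.25% v/v non-ionic surfactant were applied by track sprayer at 187 l/ha and 63-1000 g ai/ha to bottom-watered 2-3 leaf plants.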

[2] = tested on: upland rice (Oryza sp., var.Tebonnet, RICE); assay: Post-emerge greenhouse test, crop damage rating; settings: 14 days after application
Outline: as §1

[3] = tested on: sicklepod (Cassia obtusifolia, CASOB); assay: Pre-emerge greenhouse herbicide test, phytotoxicity rating; settings: 14 days after application, rating scale 0-100
Outline: (§2)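 Visual 0–100 injury rating (100 = all plants dead) taken 14 days after treatment. Rates of 125–1000 g ai/ha in acetone, 187 l/ha, were sprayed onto soil one day post-sowing; pots were surface-watered to incorporate, then bottom-watered.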

[4] = tested on: common ragweed (Ambrosia artemisiifolia L., AMBEL); assay: as above; settings: 14 days after application, rating scale 0-100
Outline: as §2

[5] = tested on: large crabgrass (Digitaria sanguinalis, DIGSA); assay: as above; settings: 14 days after application, rating scale 0-100
Outline: as §2

[6] = tested on: Johnsongrass (Sorghum halepense, SORHA); assay: as above; settings: 14 days after application, rating scale 0-100
Outline: as §2

[7] = tested on: lambsquarters (Chenopodium album, CHEAL); assay: as above; settings: 14 days after application, rating scale 0-100
Outline: as §2

[8] = tested on: barnyardgrass (Echinochloa crusgalli, ECHCG); assay: as above; settings: 14 days after application, rating scale 0-100
Outline: as §2

[9] = tested on: velvetleaf (Abutilon theophrasti, ABUTH); assay: as above; settings: 14 days after application, rating scale 0-100
Outline: as §2

[10] = tested on: redroot pigweed (Amaranthus retroflexus, AMARE); assay: as above; settings: 14 days after application, rating scale 0-100
Outline: as §2

[11] = tested on: ivyleaf morningglory (Ipomoea hederacea, IPOHE); assay: as above; settings: 14 days after application, rating scale 0-100
Outline: as §2

[12] = tested on: green foxtail (Setaria viridis, SETVI); assay: as above; settings: 14 days after application, rating scale 0-100
Outline: as §2

[13] = tested on: field corn (Zea mays L., var. Dekalb 535, CORN); assay: Pre-emerge greenhouse test, crop damage rating; settings: 14 days after application, rating scale 0-100
Outline: as §2

[14] = tested on: upland rice (Oryza sp., var.Tebonnet, RICE); assay: Pre-emerge greenhouse test, crop damage rating; settings: 14 days after application, rating scale 0-100
Outline: as §2

[15] = tested on: soybean (Glycine max L., var. Pella 86, SOY); assay: Pre-emerge greenhouse test, crop damage rating; settings: 14 days after application, rating scale 0-100
Outline: as §2

[16] = tested on: common ragweed (Ambrosia artemisiifolia L., AMBEL); assay: Post-emerge greenhouse herbicide test, phytotoxicity rating; settings: 14 days after application
Outline: as §1

[17] = tested on: soybean (Glycine max L., var. Pella 86, SOY); assay: Post-emerge greenhouse test, crop damage rating; settings: 14 days after application
Outline: as §1

[18] = tested on: sicklepod (Cassia obtusifolia, CASOB); assay: Post-emerge greenhouse herbicide test, phytotoxicity rating; settings: 14 days after application
Outline: as §1

[19] = tested on: large crabgrass (Digitaria sanguinalis, DIGSA); assay: as above; settings: 14 days after application
Outline: as §1

[20] = tested on: Johnsongrass (Sorghum halepense, SORHA); assay: as above; settings: 14 days after application
Outline: as §1

[21] = tested on: lambsquarters (Chenopodium album, CHEAL); assay: as above; settings: 14 days after application
Outline: as §1

[22] = tested on: barnyardgrass (Echinochloa crusgalli, ECHCG); assay: as above; settings: 14 days after application
Outline: as §1

[23] = tested on: velvetleaf (Abutilon theophrasti, ABUTH); assay: as above; settings: 14 days after application
Outline: as §1

[24] = tested on: redroot pigweed (Amaranthus retroflexus, AMARE); assay: as above; settings: 14 days after application
Outline: as §1

[25] = tested on: ivyleaf morningglory (Ipomoea hederacea, IPOHE); assay: as above; settings: 14 days after application
Outline: as §1

[26] = tested on: green foxtail (Setaria viridis, SETVI); assay: as above; settings: 14 days after application
Outline: as §1

Nc1ccc(Oc2cc(-n3c(=O)n4n(c3=S)CCCC4)c(F)cc2Cl)c(C(F)(F)F)c1 [Compound 8-15]
100: phytotoxicity rating CHEAL ([7]; 500 g ai/ha)
50: phytotoxicity rating ABUTH ([9]; 500 g ai/ha) | SOY crop damage rating (0-100) ([17]; 500 g al/ha) | CASOB phytotoxicity rating (0-100) ([18]; 500 g al/ha) | ABUTH phytotoxicity rating (0-100) ([23]; 63 g al/ha)
0: CORN crop damage rating (0-100) ([1]; 63 g al/ha) | CORN crop damage rating (0-100) ([1]; 500 g al/ha) | RICE crop damage rating (0-100) ([2]; 63 g al/ha) | RICE crop damage rating (0-100) ([2]; 500 g al/ha) | phytotoxicity rating CASOB ([3]; 125 g ai/ha) | phytotoxicity rating CASOB ([3]; 500 g ai/ha) | phytotoxicity rating AMBEL ([4]; 125 g ai/ha) | phytotoxicity rating AMBEL ([4]; 500 g ai/ha) | phytotoxicity rating DIGSA ([5]; 125 g ai/ha) | phytotoxicity rating DIGSA ([5]; 500 g ai/ha) | phytotoxicity rating SORHA ([6]; 125 g ai/ha) | phytotoxicity rating SORHA ([6]; 500 g ai/ha) | phytotoxicity rating CHEAL ([7]; 125 g ai/ha) | phytotoxicity rating ECHCG ([8]; 125 g ai/ha) | phytotoxicity rating ECHCG ([8]; 500 g ai/ha) | phytotoxicity rating ABUTH ([9]; 125 g ai/ha) | phytotoxicity rating AMARE ([10]; 125 g ai/ha) | phytotoxicity rating IPOHE ([11]; 125 g ai/ha) | phytotoxicity rating IPOHE ([11]; 500 g ai/ha) | phytotoxicity rating SETVI ([12]; 125 g ai/ha) | phytotoxicity rating SETVI ([12]; 500 g ai/ha) | crop damage rating CORN ([13]; 125 g ai/ha) | crop damage rating CORN ([13]; 500 g ai/ha) | crop damage rating RICE ([14]; 125 g ai/ha) | crop damage rating RICE ([14]; 500 g ai/ha) | crop damage rating SOY ([15]; 125 g ai/ha) | crop damage rating SOY ([15]; 500 g ai/ha) | CASOB phytotoxicity rating (0-100) ([18]; 63 g al/ha) | DIGSA phytotoxicity rating (0-100) ([19]; 63 g al/ha) | DIGSA phytotoxicity rating (0-100) ([19]; 500 g al/ha) | SORHA phytotoxicity rating (0-100) ([20]; 63 g al/ha) | SORHA phytotoxicity rating (0-100) ([20]; 500 g al/ha) | ECHCG phytotoxicity rating (0-100) ([22]; 63 g al/ha) | ECHCG phytotoxicity rating (0-100) ([22]; 500 g al/ha) | SETVI phytotoxicity rating (0-100) ([26]; 63 g al/ha) | SETVI phytotoxicity rating (0-100) ([26]; 500 g al/ha)
70: AMBEL phytotoxicity rating (0-100) ([16]; 500 g al/ha) | CHEAL phytotoxicity rating (0-100) ([21]; 63 g al/ha) | AMARE phytotoxicity rating (0-100) ([24]; 500 g al/ha)
80: ABUTH phytotoxicity rating (0-100) ([23]; 500 g al/ha) | IPOHE phytotoxicity rating (0-100) ([25]; 500 g al/ha)
30: AMBEL phytotoxicity rating (0-100) ([16]; 63 g al/ha)
40: phytotoxicity rating AMARE ([10]; 500 g ai/ha) | AMARE phytotoxicity rating (0-100) ([24]; 63 g al/ha) | IPOHE phytotoxicity rating (0-100) ([25]; 63 g al/ha)
90: CHEAL phytotoxicity rating (0-100) ([21]; 500 g al/ha)
20: SOY crop damage rating (0-100) ([17]; 63 g al/ha)
